Reference: ChEMBL document CHEMBL1125475, “Preferred antagonist binding state of the NMDA receptor: synthesis, pharmacology, and computer modeling of (phosphonomethyl)phenylalanine derivatives” (1992)

What was measured:
Format in all cases: functional
Mus musculus [1] = species: Mus musculus; test: Antagonistic activity of 100 uM of compound against electrophysiological responses induced by NMDA (10 uM) in culture mouse cortical neurons
Mus musculus [2] = species: Mus musculus; test: Tested for antagonistic activity against electrophysiological responses induced by NMDA (10 uM) in culture mouse cortical neurons at 100 uM
Mus musculus [3] = species: Mus musculus; test: Tested for antagonistic activity against electrophysiological responses induced by NMDA (10 uM) in culture mouse cortical neurons at 10 uM
Mus musculus [4] = species: Mus musculus; test: Antagonistic activity of 10 uM of compound against electrophysiological responses induced by NMDA (10 uM) in culture mouse cortical neurons

SMILES | Inhibition (Mus musculus [1]) [%] | also measured
NC(CC1CCCC(CS(=O)(=O)[O-])C1)C(=O)O.[Na+] (centres undefined) | 50 | –
NC(Cc1cccc(CS(=O)(=O)[O-])c1)C(=O)O.[Na+] (centres undefined) | 0 | –
NC(CCCP(=O)(O)O)C(=O)O (centres undefined) | – | Inhibition (Mus musculus [2]): 100%; Inhibition (Mus musculus [3]): 68%
NC(CC1CCC(CS(=O)(=O)[O-])CC1)C(=O)O.[Na+] (centres undefined) | 20 | –
NC(Cc1ccc(CS(=O)(=O)[O-])cc1)C(=O)O.[Na+] (centres undefined) | 0 | –
NC(Cc1ccc(CP(=O)(O)O)cc1)C(=O)O (centres undefined) | 0 | –
NC(CC1CCCCC1CS(=O)(=O)[O-])C(=O)O.[Na+] (centres undefined) | 50 | –
NC(Cc1cccc(CC(=O)O)c1)C(=O)O (centres undefined) | 31 | –
NC(Cc1ccccc1CS(=O)(=O)[O-])C(=O)O.[Na+] (centres undefined) | 22 | –
NC(CC1CCC(CP(=O)(O)O)CC1)C(=O)O (centres undefined) | 18 | –
NC(CC1CCCC(CP(=O)(O)O)C1)C(=O)O (centres undefined) | 90 | Inhibition (Mus musculus [4]): 34%
NC(Cc1cccc(CP(=O)(O)O)c1)C(=O)O (centres undefined) | 100 | Inhibition (Mus musculus [4]): 80%
NC(CC1CCCCC1CP(=O)(O)O)C(=O)O (centres undefined) | 75 | –
NC(Cc1cccc(CC(=O)NO)c1)C(=O)O (centres undefined) | – | Inhibition (Mus musculus [2]): 12%
NC(Cc1ccccc1CP(=O)(O)O)C(=O)O (centres undefined) | 87 | Inhibition (Mus musculus [4]): 40%
